Results published in US9895349B2, “N-phenyl-carboxamide derivatives and the use thereof as medicaments for the treatment of hepatitis B” (priority 2013, dated 2018).
pEC50: −log10 of the molar value.

Assays:
[1] = tested on: HepG2 cells; assay: Cytotoxicity in HepG2 cells, Resazurin assay; conditions: read-out: HepG2 4 days CC50, 4 days incubation, Resazurin viability
[2] = tested on: HBV; assay: Anti-HBV activity, HepG2.117 inducibly HBV producing cell line (Tet-off), intracellular HBV DNA by realtime PCR; format: cell-based, Hepatitis B virus (HBV); conditions: HepG2.117 cells, 3 days of treatment
[3] = tested on: HBV; assay: Anti-HBV activity, HepG2.2.15 stable transfected cell line, HBV DNA from secreted virions by realtime PCR; format: cell-based, Hepatitis B virus (HBV); conditions: HepG2.2.15 cells, 6 days of treatment
[4] = in vitro; conditions: human
[5] = Cytotoxicity in HepG2 cells, Resazurin assay; conditions: human
[6] = Hepatitis B virus, HepG2.117, 72 h
[7] = Hepatitis B virus, HepG2.2.15, 144 h

Cc1cc(NC(=O)C2CCN(S(=O)(=O)C3CCOC3)C2)ccc1F (mixture of isomers) [Compound 12]
CC50 [1]: > 25 µM
pEC50 [2]: 5.64
pEC50 [3]: 5.39

Cc1cc(NC(=O)C2CCN(S(=O)(=O)C3CCS(=O)(=O)C3)C2)ccc1F (mixture of isomers) [Compound 13]
CC50 [1]: > 25 µM
pEC50 [2]: 5.47
pEC50 [3]: 5.34

Cc1cc(NC(=O)C2CCN(S(=O)(=O)C3CS(=O)(=O)CC3O)C2)ccc1F (mixture of isomers) [Compound 15]
CC50 [1]: > 25 µM
pEC50 [2]: 4.83
pEC50 [3]: 4.90

Cc1cc(NC(=O)C2CCN(S(=O)(=O)C3CCCCC3O)C2)ccc1F (mixture of isomers) [Compound 16]
CC50 [1]: > 25 µM
pEC50 [2]: 5.60
pEC50 [3]: 5.46

Cc1cc(NC(=O)C2CCN(S(=O)(=O)C(C)CC(C)C)C2)ccc1F (mixture of isomers) [Compound 17]
CC50 [1]: > 25 µM
pEC50 [2]: 5.23
pEC50 [3]: 5.23

COCC(C)S(=O)(=O)N1CCC(C(=O)Nc2ccc(F)c(C)c2)C1 (mixture of isomers) [Compound 18]
CC50 [1]: > 25 µM
pEC50 [2]: 5.28
pEC50 [3]: 5.24

Cc1cc(NC(=O)C2(C)CCN(S(=O)(=O)CC(C)C)C2)ccc1F (racemic) [Compound 29a, N-(4-fluoro-3-methyl-phenyl)-1-isobutylsulfonyl-3-methyl-pyrrolidine-3-carboxamide]
CC50 [1]: > 25 µM
pEC50 [2]: < 4.60
pEC50 [3]: < 4.60

Cc1cc(NC(=O)C2(C)CCN(S(=O)(=O)CC(C)C)C2)ccc1F (racemic) [Compound 29b, N-(4-fluoro-3-methyl-phenyl)-1-isobutylsulfonyl-3-methyl-pyrrolidine-3-carboxamide]
CC50 [1]: > 25 µM
pEC50 [2]: 5.16
pEC50 [3]: 4.74

Cc1cc(NC(=O)[C@H]2C[C@@H]3CC[C@H]2N3S(=O)(=O)CC(C)C)ccc1F (racemic) [Compound 30, N-(4-fluoro-3-methyl-phenyl)-7-isobutylsulfonyl-7-azabicyclo[2.2.1]heptane-3-carboxamide]
CC50 at 4 days [4]: > 25 µM
pEC50 [2, 6]: 5.33
pEC50 [3, 7]: 6.21

Cc1cc(NC(=O)C2(F)CCN(S(=O)(=O)NC(C)C)C2)ccc1F (racemic) [Compound 35b, 3-fluoro-N-(4-fluoro-3-methyl-phenyl)-1-(isopropylsulfamoyl)pyrrolidine-3-carboxamide]
CC50 [1]: > 25 µM
pEC50 [2]: < 5.30
pEC50 [3]: < 5.30

Cc1cc(NC(=O)C2CN(S(=O)(=O)NC(C)C)C3CC23)ccc1F (single isomer, unassigned) [Compound 36b, N-(4-fluoro-3-methyl-phenyl)-2-(isopropylsulfamoyl)-2-azabicyclo[3.1.0]hexane-4-carboxamide]
CC50 [1]: > 25 µM
pEC50 [2]: 6.42
pEC50 [3]: 6.34

Cc1cc(NC(=O)C2(F)CCN(S(=O)(=O)N[C@H]3CCOC3)C2)ccc1F (single isomer, unassigned) [Compound 42b]
CC50 [1]: > 25 µM
pEC50 [2]: 5.77
pEC50 [3]: 5.49

Cc1cc(NC(=O)[C@H]2CCN(S(C)(=O)=O)C2)ccc1F [Compound 4]
CC50 [1]: > 25 µM
pEC50 [2]: 4.97
pEC50 [3]: 4.79

Cc1cc(NC(=O)[C@H]2CCN(S(=O)(=O)C3CC3)C2)ccc1F [Compound 5]
CC50 [1]: > 25 µM
pEC50 [2]: 5.70
pEC50 [3]: 5.04

Cc1cc(NC(=O)[C@H]2CCN(S(=O)(=O)C(C)C)C2)ccc1F [Compound 7]
CC50 [1]: > 25 µM
pEC50 [2]: 5.33
pEC50 [3]: 4.87

COCCS(=O)(=O)N1CC[C@H](C(=O)Nc2ccc(F)c(C)c2)C1 [Compound 14]
CC50 [1]: > 25 µM
pEC50 [2]: 5.82
pEC50 [3]: 5.72

CCC(CC)S(=O)(=O)N1CC[C@H](C(=O)Nc2ccc(F)c(C)c2)C1 [Compound 19]
CC50 [1]: > 25 µM
pEC50 [2]: 5.54
pEC50 [3]: 5.08

Cc1cc(NC(=O)[C@H]2CCN(C(=O)OC3COC3)C2)ccc1F [Compound 20]
CC50 [1]: > 25 µM
pEC50 [2]: 5.40
pEC50 [3]: 4.79

Cc1cc(NC(=O)[C@H]2CCN(C(=O)OC(C)C)C2)ccc1F [Compound 21]
CC50 [1]: > 25 µM
pEC50 [2]: 5.57
pEC50 [3]: 5.27

COC(=O)N1CC[C@H](C(=O)Nc2ccc(F)c(C)c2)C1 [Compound 22]
CC50 [1]: > 25 µM
pEC50 [2]: 5.07
pEC50 [3]: 4.87

Cc1cc(NC(=O)[C@H]2CCN(S(=O)(=O)C3CCCCC3)C2)ccc1F [Compound 23]
CC50 [1]: > 25 µM
pEC50 [2]: 5.85
pEC50 [3]: 6.02

Cc1cc(NC(=O)[C@H]2CCN(S(=O)(=O)NC(C)CC#N)C2)ccc1F (stereo partly drawn) [Compound 40, (3S)-1-[(2-cyano-1-methyl-ethyl)sulfamoyl]-N-(4-fluoro-3-methyl-phenyl)pyrrolidine-3-carboxamide]
CC50 at 4 days [5]: > 25 µM
pEC50 [2, 6]: 6.92
pEC50 [3, 7]: 6.54

Cc1cc(NC(=O)C23CC2CN(S(=O)(=O)N[C@H]2CCOC2)C3)ccc1F (stereo partly drawn) [Compound 43, N-(4-fluoro-3-methyl-phenyl)-3-[[(3S)-tetrahydrofuran-3-yl]sulfamoyl]-3-azabicyclo[3.1.0]hexane-1-carboxamide]
CC50 at 4 days [5]: > 25 µM
pEC50 [2, 6]: 6.07
pEC50 [3, 7]: 6.24

CC1(NS(=O)(=O)N2CC[C@H](C(=O)Nc3ccc(F)c(F)c3)C2)COC1 [Compound 44, (3S)—N-(3,4-difluorophenyl)-1-[(3-methyloxetan-3-yl)sulfamoyl]pyrrolidine-3-carboxamide]
CC50 at 4 days [5]: > 25 µM
pEC50 [2, 6]: 6.38
pEC50 [3, 7]: 6.21

CC[C@@H](C)NS(=O)(=O)N1CC[C@H](C(=O)Nc2ccc(F)c(F)c2)C1 [Compound 45, (3S)—N-(3,4-difluorophenyl)-1-[[(1R)-1-methylpropyl]sulfamoyl]pyrrolidine-3-carboxamide]
CC50 at 4 days [5]: > 25 µM
pEC50 [2, 6]: 6.27
pEC50 [3, 7]: 5.49

O=C(Nc1ccc(F)c(F)c1)[C@H]1CCN(S(=O)(=O)N[C@H]2CCOC2)C1 [Compound 46, (3S)—N-(3,4-difluorophenyl)-1-[[(3S)-tetrahydrofuran-3-yl]sulfamoyl]pyrrolidine-3-carboxamide]
CC50 at 4 days [5]: > 25 µM
pEC50 [2, 6]: 6.62
pEC50 [3, 7]: 6.22

Cc1cc(NC(=O)[C@H]2CCN(S(=O)(=O)NC3(CCO)COC3)C2)ccc1F [Compound 47, (3S)—N-(4-fluoro-3-methyl-phenyl)-1-[[3-(2-hydroxyethyl)oxetan-3-yl]sulfamoyl]pyrrolidine-3-carboxamide]
CC50 at 4 days [5]: > 25 µM
pEC50 [2, 6]: 7.04
pEC50 [3, 7]: 7.19

Cc1cc(NC(=O)[C@H]2CCN(S(=O)(=O)NC3CCN(C)C3=O)C2)ccc1F (stereo partly drawn) [Compound 48, (3S)—N-(4-fluoro-3-methyl-phenyl)-1-[(1-methyl-2-oxo-pyrrolidin-3-yl)sulfamoyl]pyrrolidine-3-carboxamide]
CC50 at 4 days [5]: > 25 µM
pEC50 [2, 6]: 6.24
pEC50 [3, 7]: 5.86

Cc1cc(NC(=O)[C@H]2CCN(S(=O)(=O)N3CC4(COC4)C3)C2)ccc1F [Compound 49, (3S)—N-(4-fluoro-3-methyl-phenyl)-1-(6-oxa-2-azaspiro[3.3]heptan-2-ylsulfonyl)pyrrolidine-3-carboxamide]
CC50 at 4 days [5]: > 25 µM
pEC50 [2, 6]: 6.02
pEC50 [3, 7]: 5.83

Cc1cc(NC(=O)[C@H]2CCN(S(=O)(=O)NC3CC(=O)N(C)C3)C2)ccc1F (stereo partly drawn) [Compound 50, (3S)—N-(4-fluoro-3-methyl-phenyl)-1-[(1-methyl-5-oxo-pyrrolidin-3-yl)sulfamoyl]pyrrolidine-3-carboxamide]
CC50 at 4 days [5]: > 25 µM
pEC50 [2, 6]: 6.34
pEC50 [3, 7]: 6.46

COC(=O)NC[C@@H](C)NS(=O)(=O)N1CC[C@H](C(=O)Nc2ccc(F)c(C)c2)C1 [Compound 51, methyl N-[(2R)-2-[[(3S)-3-[(4-fluoro-3-methyl-phenyl)carbamoyl]pyrrolidin-1-yl]sulfonylamino]propyl]carbamate]
CC50 at 4 days [5]: > 25 µM
pEC50 [2, 6]: 7.24
pEC50 [3, 7]: 6.82
